Assay results: patent US12157713B2, “Conjugated oligoelectrolytes as antimicrobial agents” (Nanyang Technological University, priority 2018, dated 2024)
“And” between values parts separate entries of the source, which are not always exact repeats. Equal values may be shown once. Read-outs that look alike come from different tables or passages of the source.

Key:
[1] = system: Candida albicans ATCC 90028; experiment: Single-dose growth inhibition, Ca; format: cell-based
Experimental: (§1) Growth inhibition of C. albicans was determined by measuring the absorbance at 530 nm (OD530), while the growth inhibition of C. neoformans was determined by measuring the difference in absorbance between 600 and 570 nm (OD600-570), after the addition of resazurin (0.001 wt. % final concentration) and incubation at 35° C. for additional 2 hrs. The absorbance was measured using a Biotek Synergy HTX plate reader. The relative growth inhibition was calculated for each well, relative to that determined from a negative control (media only) and positive control (bacteria without inhibitors) on the same plate as references. A single dose of 32 μg/mL of COE (final concentration) was used for each test.
(§2) Percentage growth inhibition of an individual sample was calculated based on growth in a reference well determined from negative controls (media only) and positive controls (bacterial/fungal media without inhibitors). Negative inhibition values indicate that the growth rate (or OD600) is higher compared to the reference growth (bacteria/fungi only, set to 0% inhibition). The growth rates for all bacteria and fungi may vary at −/+10%, which were within the reported normal distribution of bacterial/fungal growth. Any significant variations (or outliers/hits) were identified by the modified Z-Score, and the active compounds were selected by a combination of inhibition values and Z-Score.
(§3) A M(i) value of >|2.5| (absolute) would classify the sample as outliers or hits. Active samples were denoted as compounds with inhibition values equal to or above 80% and absolute Z-Score above |2.5| for either replicate (n=2 on different plates). Partial active samples were denoted as compounds with inhibition values from 50% to <80%, or absolute Z-Score below |2.5|.

[2] = system: Acinetobacter baumannii ATCC 19606; experiment: Single-dose growth inhibition, Ab; format: cell-based
Experimental: (§4) Inhibition of bacterial growth was determined by measuring the absorbance at 600 nm (OD600), using a Tecan M1000 Pro monochromator plate reader. Growth inhibition was calculated for each well, relative to the reference growths determined from a negative control (media only) and positive control (bacteria without inhibitors) incubated in the same plate. A single dose of 32 μg/mL of COE (final concentration) was used for each test.
as §2, §3

[3] = system: organism classes (Gram-negative, Gram-positive and fungi); experiment: Single-dose screening summary by organism class; format: cell-based; conditions: 32 μg/mL; 0 = no activity
Experimental: as §2
Z-Score analysis was carried out to investigate outliers or hits among the samples. The Z-Score was calculated based on the sample population using a modified Z-Score method which accounts for possible skewed sample population. The modified method uses median and MAD ([…]) instead of average and standard deviation, and a scaling factor (Iglewicz, B. & Hoaglin, D. C. Volume 16: How to Detect and Handle Outliers. The ASQC Basic Reference in Quality Control: Statistical Techniques, 1993). The equation to calculate the modified Z-Score value is as follow: […]
as §3

[4] = system: Escherichia coli FDA control ATCC 25922; experiment: Single-dose growth inhibition, Ec; format: cell-based
Experimental: as §4, §2, §3

[5] = system: Pseudomonas aeruginosa ATCC 27853; experiment: Single-dose growth inhibition, Pa; format: cell-based
Experimental: as §4, §2, §3

[6] = system: Cryptococcus neoformans var. grubii H99; ATCC 208821; experiment: Single-dose growth inhibition, Cn; format: cell-based
Experimental: as §1, §2, §3

E. coli K12 [7] = experiment: MIC by broth microdilution against E. coli K12; format: cell-based; conditions: Escherichia coli, read-out: MIC against E. coli K12
Experimental: The respective minimum inhibition concentration (MIC) of each COE molecule was determined using a broth microdilution method. Briefly, COEs were diluted via a 2-fold dilution series in 100 μL of either Muller Hinton Broth (MHB) for E. coli and S. aureus or Brain Heart Infusion Broth (BHI) for E. faecalis in a 96-well plate to achieve the desired final concentration. Subsequently, each well was inoculated with 100 μL of 1×10^6 colony forming units (CFU) mL^−1 of the respective microorganism in MHB for E. coli or BHI for E. faecalis to achieve an inoculum density of 5×10^5 CFU mL^−1. The plates were then incubated at 37° C. with shaking (200 rpm) for 18 hrs. […] The results were obtained in triplicate.
The MIC values of COE-D4, COE-D6 and COE-D8 against the reference strain E. coli K12, pathogenic E. coli UT189, and the Gram positive pathogen Enterococcus faecalis OG1RF were determined using a broth microdilution method as described in the general method above. The MICs for E. coli K12 were determined to be 128, 16, and 4 μg mL^−1 for COE-D4, COE-D6, and COE-D8, respectively (FIG. 5a). […] This is not surprising as these two organisms differ in the capsular polysaccharides that they expressed, which are known to hinder the uptake of antimicrobials and mitigate their potency (M. A. Campos, et al., Infect. Immun. 2004, 72, 7107-7114). A K-type capsid comprising α2-8-linked sialic acid is excreted by UT189 and is known to be an important virulence factor for this organism (C. Whitfield, et al., Mol. Microbiol. 1999, 31, 1307-1319; G. G. Anderson, et al., Infect. Immun. 2010, 78, 963-975).

[8] = system: Klebsiella pneumoniae MDR ATCC 700603; experiment: Single-dose growth inhibition, Kp; format: cell-based
Experimental: as §4, §2, §3

[9] = system: Staphylococcus aureus MRSA ATCC 43300; experiment: Single-dose growth inhibition, Sa; format: cell-based
Experimental: as §4, §2, §3

[10] = Solubility in PBS / aqueous solubility; format: physicochemical
E. coli K12 [11] = experiment: Cellular uptake by E. coli K12 (absorption spectroscopy); format: cell-based, Escherichia coli; conditions: 10 μg/mL COE in PBS, OD=0.5, 2 hrs, room temperature
Experimental: The relative membrane affinity of COE-D4, COE-D6 and COE-D8 was estimated from the quantity taken up by cells using absorption spectroscopy. After cultures of E. coli K12 were grown in MHB at 37° C., the cells were harvested by centrifugation (6000 rpm, 5 min) and washed twice with PBS solution (pH=7.2). The cells were then resuspended in PBS and with the density adjusted to OD=1.0. Thereafter, 5 mL of this cell suspension was mixed with an equal volume of 20 μg/mL of COE in PBS to achieve a final concentration of 10 μg/mL (in triplicates). After exposure to COEs for 2 hrs at room temperature and with shaking (200 rpm), the cells were removed by centrifugation and the supernatant was collected for absorbance scans to quantify the remaining COE in the supernatant. The uptake quantity was estimated by comparing the absorbance of the supernatant to the corresponding control COE solution (i.e. 10 μg/mL in PBS). The procedure for uptake measurements at the lower temperature is similar to the one described above, but with the exposure to COEs and centrifugation occurring at 4° C. instead of room temperature
The effect of molecular structures of the COEs on relative membrane affinity, estimated from the amount taken up by E. coli K12, was measured by absorption spectroscopy (FIG. 8a-c). These experiments utilised cell suspensions (OD=0.5) incubated for 2 hrs with 10 μg mL^−1 of various COE. Cells were removed by centrifugation, and the amount of uncomplexed COE was determined from the optical absorption spectra. The longest molecule, COE-D8, achieved the highest uptake in bacteria (72%). In contrast, only 3% of COE-D4 was absorbed while the uptake for COE-D6 was 16% (Table 1a).
Parallel experiments were carried out at 4° C. […] As a result of the reduced fluidity of cellular membrane at lower temperature, the uptake decreased to around 1% for COE-D4, 5% for COE-D6, and 34% for COE-D8.

[12] = system: Pseudomonas aeruginosa (PAO1) biofilm; experiment: Anti-biofilm assay (MBEC plate, crystal violet); format: cell-based; conditions: P. aeruginosa PAO1 biofilm, 1 hour challenge in M9GC
Experimental: Pseudomonas aeruginosa (PAO1) was grown in Luria-Bertani (LB) broth under shaking (200 rpm) at 37° C. for 16-18 hours. The overnight culture was diluted to 1:200 in M9GC media (M9 medium supplemented with glucose and casamino acids), and 200 μL of diluted culture was added to each well of MBEC plate (Innovotech, Canada). After incubating at 37° C. for 5 hours under shaking (200 rpm), biofilm was formed on the pegs of the MBEC plate. The pegs were then rinsed with 1× phosphate buffered saline (PBS) solution (200 μL per well), and exposed to a two-fold dilution series of COE in M9GC media (200 μL per well). The challenge plate was incubated at 37° C. for 1 hour under shaking (200 rpm), and then the pegs were washed using 200 μL PBS before being dipped into 180 μL 0.1 wt. % crystal violet aqueous solution. After incubating at room temperature for 15 minutes, the pegs were rinsed with PBS twice and transferred to a plate containing 200 μL absolute ethanol in each well for 15 minutes. The biofilm mass was quantified by measuring the absorption of crystal violet/ethanol solution at 550 nm. The minimum biofilm dispersal concentration (MBDC) values were determined as the lowest COE concentration at which biofilm attached on the peg was completely dispersed. The results were repeated in triplicate.

[13] = ATCC90028, 32 μg/mL single dose, n=2, read-out: Growth inhibition Ca
[14] = ATCC19606, 32 μg/mL single dose, n=2, read-out: Growth inhibition Ab
[15] = ATCC25922, 32 μg/mL single dose, n=2, read-out: Growth inhibition Ec
[16] = ATCC27853, 32 μg/mL single dose, n=2, read-out: Growth inhibition Pa
[17] = ATCC208821, 32 μg/mL single dose, n=2, read-out: Growth inhibition Cn
[18] = K12, broth microdilution, MHB, 18 hrs
[19] = ATCC700603, 32 μg/mL single dose, n=2, read-out: Growth inhibition Kp
[20] = 32 μg/mL single dose, n=2, read-out: Growth inhibition Sa
[21] = aqueous buffer, in PBS, read-out: Solubility in PBS

Row | SMILES | Activity: number of organism classes the compound has been found active against [3] | inhibition at 32 µg/mL [1, 13] | inhibition at 32 µg/mL [2, 14] | inhibition at 32 µg/mL [4, 15] | inhibition at 32 µg/mL [5, 16] | inhibition at 32 µg/mL [6, 17] | MIC (E. coli K12 [7]; [18]) | inhibition at 32 µg/mL [8, 19] | inhibition at 32 µg/mL [9, 20] | other results
1 | C[N+](C)(C)CC[N+](C)(C)CCCCOc1ccc(/C=C/c2ccc(OCCCC[N+](C)(C)CC[N+](C)(C)C)cc2)cc1 [COE-D42] | 1 | – | – | – | – | – | – | – | – | inhibition at 32 µg/mL ([1]; ATCC90028, read-out: Growth inhibition Ca): < 50%; inhibition at 32 µg/mL ([2]; ATCC19606, read-out: Growth inhibition Ab): < 50%; inhibition at 32 µg/mL ([4]; ATCC25922, read-out: Growth inhibition Ec): < 50%; inhibition at 32 µg/mL ([5]; ATCC27853, read-out: Growth inhibition Pa): < 50%; inhibition at 32 µg/mL ([6]; ATCC208821, read-out: Growth inhibition Cn): < 50%; MIC (E. coli K12 [7]; K12, 18 h): 128 µg/mL; inhibition at 32 µg/mL ([8]; ATCC700603, read-out: Growth inhibition Kp): < 50%; inhibition at 32 µg/mL ([9]; read-out: Growth inhibition Sa): > 80%
2 | C[N+](C)(C)CC[N+](C)(C)CCCCCCOc1ccc(/C=C/c2ccc(OCCCCCC[N+](C)(C)CC[N+](C)(C)C)cc2)cc1 [COE-D62] | 3 | < 50% | > 80% | > 80% | < 50% | > 80% | 16 µg/mL | > 80% | > 80% | –
3 | C[N+](C)(C)CC[N+](C)(C)CCCCCCCCOc1ccc(/C=C/c2ccc(OCCCCCCCC[N+](C)(C)CC[N+](C)(C)C)cc2)cc1 [COE-D82] | 3 | > 80% | 50 to 80% | > 80% | > 80% | > 80% | 32 µg/mL | 50 to 80% | > 80% | –
4 | C[N+](C)(C)CCCCOc1ccc(/C=C/c2ccc(/C=C/c3ccc(OCCCC[N+](C)(C)C)cc3)cc2)cc1 [COE-T4] | 2 | > 80% | 50 to 80% | < 50% | < 50% | > 80% | 32 µg/mL | < 50% | > 80% | solubility [10, 21]: 210 µg/mL; solubility ([10]; aqueous solution, read-out: aqueous solubility): 210 µg/mL; Uptake by E. coli K12 (E. coli K12 [11]): 75±5% and 80%
5 | C[N+](C)(C)CCCCCCOc1ccc(/C=C/c2ccc(/C=C/c3ccc(OCCCCCC[N+](C)(C)C)cc3)cc2)cc1 [COE-T6] | 2 | > 80% | < 50% | < 50% | < 50% | > 80% | > 16 µg/mL | < 50% | > 80% | solubility [10, 21]: 76 µg/mL; Uptake by E. coli K12 (E. coli K12 [11]): 89%
6 | CN(C)CC[N+](C)(C)CCCCOc1ccc(/C=C/c2ccc(/C=C/c3ccc(OCCCC[N+](C)(C)CCN(C)C)cc3)cc2)cc1 [COE-T42N] | 3 | > 80% | > 80% | > 80% | < 50% | > 80% | 8 µg/mL | < 50% | > 80% | –
7 | CN(C)CC[N+](C)(C)CCCCCCOc1ccc(/C=C/c2ccc(/C=C/c3ccc(OCCCCCC[N+](C)(C)CCN(C)C)cc3)cc2)cc1 [COE-T62N] | 2 | > 80% | > 80% | < 50% | < 50% | > 80% | 64 µg/mL | < 50% | > 80% | –
8 | CC(C)(O/N=C(\C(=O)N[C@@H]1C(=O)N2C(C(=O)[O-])=C(C[n+]3ccccc3)CS[C@H]12)c1csc(N)n1)C(=O)O [Ceftazidime] | – | – | – | – | – | – | – | – | – | Minimum biofilm dispersal concentration [12]: >512 µg/mL
